Publication PMC5840523, “Assessment of a pretomanid analogue library for African trypanosomiasis: Hit-to-lead studies on 6-substituted 2-nitro-6,7-dihydro-5H-imidazo[2,1-b][1,3]thiazine 8-oxides” (Bioorganic & Medicinal Chemistry Letters, 2018)
Values after ≈ are worked out from the molar mass of the structure shown. Read-outs that look alike come from different tables or passages of the source. Blank lines part the entries; values can stand above or below the compound they belong to.

Legend:
T. b. brucei 427 [1] = assay: T. b. brucei growth inhibition (University of Antwerp); assay type: cell-based, Trypanosoma brucei brucei; conditions: for IC50: T. b. brucei 427, mean of 2 to 5 determinations, read-out: IC50 T. b. bruc
Leishmania infantum = assay: L. infantum growth inhibition (University of Antwerp); assay type: cell-based; conditions: mean of 2 to 5 determinations
Trypanosoma cruzi = assay: T. cruzi growth inhibition (University of Antwerp); assay type: cell-based; conditions: mean of 2 to 5 determinations
[2] = test system: human lung fibroblasts (MRC-5 cells); assay: Cytotoxicity toward MRC-5 cells (University of Antwerp); assay type: cell-based
T. b. rhodesiense = T. b. rhodesiense growth inhibition (University of Antwerp); assay type: cell-based, Trypanosoma brucei rhodesiense; conditions: mean of 2 to 5 determinations, read-out: IC50 T. b. rhod
T. b. brucei 427 [3] = assay: T. b. brucei 427 growth inhibition (Scynexis); assay type: cell-based, Trypanosoma brucei brucei; conditions: for Selectivity Index: L929 vs T. b. brucei; for IC50: Trypanosoma brucei, growth inhibition of T. b. brucei 427, mean ± SD
in vitro = conditions: dog, MDCK-MDR1, Permeability Papp
[4] = Kinetic aqueous solubility in pH 7.4 PBS; assay type: physicochemical
Source text: Table 1 Inhibitory potency, metabolic stability, aqueous solubility, and MDCK-MDR1 cell permeability for 15 screening hits against T. b. brucei. | column: Solubility ^c / (µg/mL)

Mouse liver S9 stability = assay type: in vitro ADME; conditions: CD-1, mouse, mouse liver S9 subcellular fraction, half-life in mouse liver S9 fraction; read-out: Mouse S9 t1/2
L929 mouse fibroblasts = assay: Cytotoxicity toward L929 mouse fibroblasts (Scynexis); assay type: cell-based
T. b. brucei (TREU 667) = assay: CNS (stage 2, chronic) HAT infection mouse model; assay type: in vivo, T. b. brucei; female Swiss Webster mice
Procedure: Therefore, 24 was examined in a stage 1 HAT mouse model.[14] Briefly, dosing was orally once daily for four days, starting 24 h postinfection, and parasitemia was assessed weekly via tail vein blood smears (see the Supporting Information). Excellent activity was observed (Table 4), with 24 providing complete cures (i.e. parasite free blood smears after >30 days) to all mice at doses as low as 5 mg/kg, similar to the control drug pentamidine (given i.p. at 2 mg/kg), whereas the vehicle only mice died on day 7. […]
Mouse Model for Chronic HAT Inf ection. Compound 24 was tested for in vi vo efficac y against chronic HAT infection caused b y T. b. brucei (TREU 667 strain) at the Haskin s Laboratories, Pace Universit y. […]
suspension formulation (0.8% CMC, 0.1% SDS in water) to groups of 8 or 10infected f emal e Swiss Webster mice, starting 21 d postinfection, according to a report ed method. 5 Animals remaining parasite free for more than 180 da ys beyond the end of the treatment period were […]

T. b. brucei (EATRO 110) = assay: Acute (stage 1) HAT infection mouse model; assay type: in vivo, T. b. brucei; female Swiss Webster mice; conditions: 2 mg/kg i.p. once daily for 4 days
Procedure: Therefore, 24 was examined in a stage 1 HAT mouse model.[14] Briefly, dosing was orally once daily for four days, starting 24 h postinfection, and parasitemia was assessed weekly via tail vein blood smears (see the Supporting Information). Excellent activity was observed (Table 4), with 24 providing complete cures (i.e. parasite free blood smears after >30 days) to all mice at doses as low as 5 mg/kg, similar to the control drug pentamidine (given i.p. at 2 mg/kg), whereas the vehicle only mice died on day 7. […] Here, oral dosing of 24 (at 12.5 to 50 mg/kg once daily for seven days from day 21 postinfection) led to significant increases in survival times in comparison to untreated controls (66–70 days vs 31 days; Table 5), although cure rates were inadequate (0–20%). […]
Mouse Model f or Acu te HAT Inf ection. Compound 24 was tested for in vivo effi cac y against acute HAT infection caused b y T. b. brucei (EATRO 110 strain) at the Haskins Laboratories, Pace Universit y. […] Infected animals or th ose showing si gns of infectionwer e euthanized.Untreated infected contr ol animals died after 5-7 days; mice remaining parasite free for more than 30 da ys beyond the end of the tr eatment period w er e con sidered cur ed. […]

[5] = Homo sapiens, MRC5, cytotoxicity toward human lung fibroblasts
[6] = Trypanosoma brucei, RHODESIENSE
[7] = cytotoxicity toward human lung fibroblasts
[8] = 10 mg/kg single i.p. dose on day 4
[9] = 10 mg/kg single i.p. dose on day 21

Compound: CC1(COCc2ccc(OCc3ccccc3)cc2)Cn2cc([N+](=O)[O-])nc2[S+]1[O-] (stereo not drawn) [Compound 11]
Selectivity Index (T. b. brucei 427 [3]): >77
IC50 (T. b. brucei 427 [3]): 0.13 ± 0.04 µg/mL (≈ 0.304 µM)
Papp at 1 h, 3 µM (in vitro): 65.1 ×10⁻⁶ cm/s
solubility [4]: 1.3 µg/mL (≈ 3.04 µM)
half-life (Mouse liver S9 stability): < 1.17 h
IC50 (L929 mouse fibroblasts): > 10 µg/mL

Compound: O=[N+]([O-])c1cn2c(n1)SCC(OCc1ccc(-c3ccc(OC(F)(F)F)cc3)cn1)C2 (stereo not drawn) [Compound 32]
IC50 (T. b. brucei 427 [1]; Trypanosoma brucei): 4.3 µM
IC50 (Leishmania infantum; Leishmania infantum): 7.5 µM
IC50 (Trypanosoma cruzi; Trypanosoma cruzi): 1.4 µM
IC50 [2, 5]: 21 µM
IC50 (T. b. rhodesiense; [6]): 2.1 µM

Compound: O=[N+]([O-])c1cn2c(n1)SC(COCc1ccc(OCc3ccccc3)cc1)C2 (stereo not drawn) [Compound 15]
Selectivity Index (T. b. brucei 427 [3]): >22
IC50 (T. b. brucei 427 [3]): 0.46 ± 0.21 µg/mL (≈ 1.16 µM)
Papp at 1 h, 3 µM (in vitro): 58.3 ×10⁻⁶ cm/s
solubility [4]: 1.2 µg/mL (≈ 3.02 µM)
half-life (Mouse liver S9 stability): < 1.17 h
IC50 (L929 mouse fibroblasts): > 10 µg/mL

Compound: Berenil [reference compound]
Cured (T. b. brucei (TREU 667); [8]): 100%
Cured/Total (T. b. brucei (TREU 667); [8]): 5/5
Cured (T. b. brucei (TREU 667); [9]): 0%
Cured/Total (T. b. brucei (TREU 667); [9]): 0/5
Mean relapse time (T. b. brucei (TREU 667); [9]): 41 days

Compound: N=C(N)c1ccc(OCCCCCOc2ccc(C(=N)N)cc2)cc1 [Pentamidine, pentamidine, reference compound]
Cured (T. b. brucei (EATRO 110)): 100%
Cured/Total (T. b. brucei (EATRO 110)): 3/3
Mean survival (T. b. brucei (EATRO 110)): >30 days

Compound: CSc1ccc(OCc2ncc([N+](=O)[O-])n2C)cc1 [Compound 4, fexinidazole, reference compound]
Papp at 1 h, 3 µM (in vitro): 73.2 ×10⁻⁶ cm/s

Compound: CN1CC(OCc2ccc(OCc3ccccc3)cc2)Cn2nc([N+](=O)[O-])cc21 (stereo not drawn) [Compound 23]
Selectivity Index (T. b. brucei 427 [3]): >3.3
IC50 (T. b. brucei 427 [3]): 3 ± 0.9 µg/mL (≈ 7.61 µM)
Papp at 1 h, 3 µM (in vitro): 36.3 ×10⁻⁶ cm/s
solubility [4]: 2.4 µg/mL (≈ 6.08 µM)
half-life (Mouse liver S9 stability): < 1.17 h
IC50 (L929 mouse fibroblasts): > 10 µg/mL

Compound: O=[N+]([O-])c1cn2c(n1)SCC(OCc1ccc(OCc3ccccc3)cc1)C2 (stereo not drawn) [Compound 31]
IC50 (T. b. brucei 427 [1]; Trypanosoma brucei): 1.4 µM
IC50 (Leishmania infantum; Leishmania infantum): 45 µM
IC50 (Trypanosoma cruzi; Trypanosoma cruzi): 0.49 µM
IC50 [2, 5]: > 64 µM
IC50 (T. b. rhodesiense; [6]): 1.2 µM

Compound: CC1(COCc2ccc(OCc3ccccc3)cc2)Cn2cc([N+](=O)[O-])nc2S1 (stereo not drawn) [Compound 20]
Selectivity Index (T. b. brucei 427 [3]): >4.5
IC50 (T. b. brucei 427 [3]): 2.2 ± 0.7 µg/mL (≈ 5.35 µM)
Papp at 1 h, 3 µM (in vitro): 46.5 ×10⁻⁶ cm/s
solubility [4]: 1.2 µg/mL (≈ 2.92 µM)
IC50 (L929 mouse fibroblasts): > 10 µg/mL

Second part, led by results:

IC50 (Trypanosoma cruzi; Trypanosoma cruzi): 5.3 µM
Compound: O=[N+]([O-])c1cn2c(n1)SCC(Oc1ccc(C(F)(F)F)cn1)C2 (stereo not drawn) [Compound 29]
IC50 (T. b. brucei 427 [1]; Trypanosoma brucei): > 64 µM
IC50 (Leishmania infantum; Leishmania infantum): 10 µM
IC50 [2, 5]: > 64 µM
IC50 (T. b. rhodesiense; [6]): > 64 µM

IC50 (Trypanosoma cruzi): 2.1 µM
Compound: O=[N+]([O-])c1cn2c(n1)[S+]([O-])CC(Oc1ccc(OC(F)(F)F)cc1)C2 (stereo not drawn) [Compound 33]
potency relative to 12 against T. b. brucei (fold less potent) (T. b. brucei 427 [1]): 4- to 6 fold
IC50 (T. b. brucei 427 [1]): 1.6 µM
IC50 (Leishmania infantum): 7 µM
IC50 [2, 7]: 23 µM
IC50 (T. b. rhodesiense): 0.98 µM

IC50 (Trypanosoma cruzi): 7.7 µM
Compound: O=[N+]([O-])c1cn2c(n1)[S+]([O-])CC(Oc1ccc(OC(F)(F)F)cc1)C2 (stereo not drawn) [Compound 36]
IC50 (T. b. brucei 427 [1]): 55 µM
IC50 (Leishmania infantum): > 64 µM
IC50 [2, 7]: > 64 µM
IC50 (T. b. rhodesiense): 27 µM

IC50 (Trypanosoma cruzi): 9.1 µM
Compound: O=[N+]([O-])c1cn2c(n1)[S+]([O-])CC(OCc1ccc(OC(F)(F)F)cc1)C2 (stereo not drawn) [Compound 38]
IC50 (T. b. brucei 427 [1]): 5.6 µM
IC50 (Leishmania infantum): > 64 µM
IC50 [2, 7]: > 64 µM
IC50 (T. b. rhodesiense): 5.1 µM

Papp at 1 h, 3 µM (in vitro): 79.3 ×10⁻⁶ cm/s
solubility [4]: 10 µg/mL (≈ 24.6 µM)
half-life (Mouse liver S9 stability): 2.43 h
Compound: O=[N+]([O-])c1cn2c(n1)OC[C@@H](Oc1cc(-c3ccc(C(F)(F)F)nc3)ccn1)C2 [Compound 22]
Selectivity Index (T. b. brucei 427 [3]): >3.6
IC50 (T. b. brucei 427 [3]): 2.8 ± 0.2 µg/mL (≈ 6.87 µM)
IC50 (L929 mouse fibroblasts): > 10 µg/mL

IC50 (Trypanosoma cruzi): 4.1 µM
Compound: O=[N+]([O-])c1cn2c(n1)[S+]([O-])CC(Oc1ccc(C(F)(F)F)cn1)C2 (stereo not drawn) [Compound 34]
potency relative to 12 against T. b. brucei (fold less potent) (T. b. brucei 427 [1]): 4- to 6 fold
IC50 (T. b. brucei 427 [1]): 1.2 µM
IC50 (Leishmania infantum): 13 µM
IC50 [2, 7]: > 64 µM
IC50 (T. b. rhodesiense): 0.51 µM

IC50 (Trypanosoma cruzi): 12 µM
Compound: O=[N+]([O-])c1cn2c(n1)[S+]([O-])CC(Oc1ccc(C(F)(F)F)cn1)C2 (stereo not drawn) [Compound 37]
IC50 (T. b. brucei 427 [1]): 17 µM
IC50 (Leishmania infantum): 41 µM
IC50 [2, 7]: 30 µM
IC50 (T. b. rhodesiense): 9.9 µM

IC50 (Trypanosoma cruzi; Trypanosoma cruzi): 1.1 µM
Compound: O=[N+]([O-])c1cn2c(n1)SCC(OCc1ccc(OC(F)(F)F)cc1)C2 (stereo not drawn) [Compound 30]
IC50 (T. b. brucei 427 [1]; Trypanosoma brucei): 44 µM
IC50 (Leishmania infantum; Leishmania infantum): 55 µM
IC50 [2, 5]: > 64 µM
IC50 (T. b. rhodesiense; [6]): 36 µM

IC50 (Trypanosoma cruzi; Trypanosoma cruzi): 3.5 µM
Compound: O=[N+]([O-])c1cn2c(n1)S(=O)(=O)CC(Oc1ccc(OC(F)(F)F)cc1)C2 (stereo not drawn) [Compound 40]
IC50 (T. b. brucei 427 [1]; Trypanosoma brucei): 15 µM
IC50 (Leishmania infantum; Leishmania infantum): 32 µM
IC50 [2, 5]: > 64 µM
IC50 (T. b. rhodesiense; [6]): 13 µM

IC50 (Trypanosoma cruzi): 0.14 µM
Compound: O=[N+]([O-])c1cn2c(n1)[S+]([O-])CC(OCc1ccc(-c3ccc(OC(F)(F)F)cc3)cn1)C2 (stereo not drawn) [Compound 39, 2-Nitro-6-({5-[4-(trifluoromethoxy)phenyl]pyridin-2-yl}methoxy)-6,7-dihydro-5H-imidazo[2,1-b][1,3]thiazine 8-oxide]
IC50 (T. b. brucei 427 [1]): 0.075 µM
IC50 (Leishmania infantum): 2 µM
IC50 [2, 7]: 54 µM
IC50 (T. b. rhodesiense): 0.1 µM

Papp at 1 h, 3 µM (in vitro): 76.9 ×10⁻⁶ cm/s
solubility [4]: 18 µg/mL (≈ 48.7 µM)
half-life (Mouse liver S9 stability): 3.98 h
Compound: COc1ccc(-c2ccc(O[C@@H]3COc4nc([N+](=O)[O-])cn4C3)nc2)cn1 [Compound 21]
Selectivity Index (T. b. brucei 427 [3]): >3.7
IC50 (T. b. brucei 427 [3]): 2.7 ± 0.5 µg/mL (≈ 7.31 µM)
IC50 (L929 mouse fibroblasts): > 10 µg/mL

IC50 (Trypanosoma cruzi; Trypanosoma cruzi): 2.2 µM
Compound: O=[N+]([O-])c1cn2c(n1)SCC(Oc1ccc(OC(F)(F)F)cc1)C2 (stereo not drawn) [Compound 28]
IC50 (T. b. brucei 427 [1]; Trypanosoma brucei): 40 µM
IC50 (Leishmania infantum; Leishmania infantum): 7 µM
IC50 [2, 5]: 51 µM
IC50 (T. b. rhodesiense; [6]): 59 µM

IC50 (Trypanosoma cruzi; Trypanosoma cruzi): 2.6 µM
Compound: O=[N+]([O-])c1cn2c(n1)S(=O)(=O)CC(Oc1ccc(C(F)(F)F)cn1)C2 (stereo not drawn) [Compound 41]
IC50 (T. b. brucei 427 [1]; Trypanosoma brucei): 19 µM
IC50 (Leishmania infantum; Leishmania infantum): 30 µM
IC50 [2, 5]: 46 µM
IC50 (T. b. rhodesiense; [6]): 11 µM
